Experiments:
[1] = Toxicity in CD-1 mice by i.p. injection; format: in vivo, CD-1 white female mice; conditions: mouse, in vivo, ip, 0.6 mg; 600 μg free AD; read-out: animals killed
Protocol: (§1) CD-1 white female mice, 5-7 weeks of age, weighing 30-33 g were injected by the intraperitoneal (i.p.) route with AD at concentrations of 0.6 mg and 1.5 mg dissolved in 0.5 ml of sterile saline. A second group of animals were injected with AD-PGA(15%)-HSA/MS-Q with 0.6, 1.5, and 2.5 mg of bound AD. For each concentration of the free and bound drug, 5 mice were used. PGA(15%)-HSA/MS-Q without AD was used for a control group and injected in equivalent weight amounts. Animals were then observed over a two-month period and fatalities were recorded for each group and tabulated.

[2] = tested on: CD-1 mice; assay: Toxicity in CD-1 mice by i.p. injection; format: in vivo, CD-1 white female mice
Protocol: as §1

## COc1cccc2c1C(=O)c1c(O)c3c(c(O)c1C2=O)C[C@@](O)(C(=O)CO)C[C@@H]3O[C@H]1C[C@H](N)[C@H](O)[C@H](C)O1 [AD, Adriamycin]
[1]
  mortality at 1460 h: > 80%
[2]; AD 0.6 mg i.p. (free or bound), 7 days
  Survival from Time of Administration: 5/5
[2]; AD 0.6 mg i.p. (free or bound), 14 days
  Survival from Time of Administration: 1/5
[2]; AD 0.6 mg i.p. (free or bound), 21 days
  Survival from Time of Administration: 1/5
[2]; AD 0.6 mg i.p. (free or bound), 28 days
  Survival from Time of Administration: 1/5
[2]; AD 0.6 mg i.p. (free or bound), 35 days
  Survival from Time of Administration: 1/5
[2]; AD 1.5 mg i.p. (free or bound), 7 days
  Survival from Time of Administration: 5/5
[2]; AD 1.5 mg i.p. (free or bound), 14 days
  Survival from Time of Administration: 0/5
[2]; i.p.
  ulcer development at site of injection: All animals treated with free AD developed these ulcers
